{"source": "paper PMC6994497", "about": "“Structural basis for Glycan-receptor binding by mumps virus hemagglutinin-neuraminidase” (Scientific Reports, 2020)", "target": "T1, MuV-HN (Mumps orthorubulavirus, UniProt Q9WAF5)", "T1 construct": "pHLsec N-terminal secretion signal, C-terminal His6 tag; secreted from HEK293S GnTI(-) cells; Ni-NTA and size exclusion", "T1 sequence (Q9WAF5 96-582)": "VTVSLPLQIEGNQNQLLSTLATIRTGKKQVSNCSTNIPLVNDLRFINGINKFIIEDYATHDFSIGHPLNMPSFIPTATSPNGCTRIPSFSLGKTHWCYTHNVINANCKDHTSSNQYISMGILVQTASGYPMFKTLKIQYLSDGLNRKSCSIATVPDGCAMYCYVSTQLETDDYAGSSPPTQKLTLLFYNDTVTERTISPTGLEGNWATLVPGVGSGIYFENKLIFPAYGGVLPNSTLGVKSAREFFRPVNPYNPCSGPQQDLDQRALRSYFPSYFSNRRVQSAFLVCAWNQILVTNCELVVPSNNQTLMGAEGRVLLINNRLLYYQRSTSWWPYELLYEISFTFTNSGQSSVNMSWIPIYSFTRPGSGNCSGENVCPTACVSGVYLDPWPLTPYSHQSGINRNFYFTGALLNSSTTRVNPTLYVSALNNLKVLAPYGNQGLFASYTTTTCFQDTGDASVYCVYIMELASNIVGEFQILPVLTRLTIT", "experiment": "STD NMR", "type": "binding", "settings": "deuterated phosphate buffer pH 7.4; reaction mixture after hydrolysis of 1, also free reducing sialic acid", "data": [{"smiles": "CC(=O)N[C@H]1[C@H]([C@H](O)[C@H](O)CO)OC(O)(C(=O)O)C[C@@H]1O", "note": "(stereo partly shown) [reducing Sia]", "values": [{"measurement": "STD NMR", "result": "the protein was able to bind the reducing sialic acid produced during the hydrolysis reaction"}]}]}
